Measured values reported in patent US12061201B2, “Fluorescent probes for the visualization of FtsZ in gram-positive and gram-negative bacterial pathogens” (Rutgers, The State University of New Jersey, priority 2019, dated 2024).
Read-outs that look alike come from different tables or passages of the source.

Experiments:
Test in all cases: Fluorescence anisotropy binding of BOFP to FtsZ
Settings in all cases: for Kd: 50 mM Tris-HCl (pH 7.6), 50 mM KCl
[1] = biological target: Escherichia coli FtsZ (EcFtsZ) (Escherichia coli, UniProt P0A9A6)
Escherichia coli FtsZ (EcFtsZ), sequence (P0A9A6 whole entry): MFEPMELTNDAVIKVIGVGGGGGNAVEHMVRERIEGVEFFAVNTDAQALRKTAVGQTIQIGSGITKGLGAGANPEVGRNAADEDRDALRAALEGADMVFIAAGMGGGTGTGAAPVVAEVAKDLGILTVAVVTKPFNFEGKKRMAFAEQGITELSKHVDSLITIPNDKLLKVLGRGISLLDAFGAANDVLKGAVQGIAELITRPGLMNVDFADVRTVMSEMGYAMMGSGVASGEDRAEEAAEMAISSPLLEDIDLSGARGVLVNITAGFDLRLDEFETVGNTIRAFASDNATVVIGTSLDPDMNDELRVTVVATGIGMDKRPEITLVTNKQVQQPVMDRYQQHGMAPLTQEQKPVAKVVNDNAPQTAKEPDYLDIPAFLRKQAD
Protocol: (§1) Fluorescence anisotropy assay for determining the affinities and thermodynamics associated with the binding of BOFP to FtsZ proteins. Fluorescence anisotropy experiments were performed using an AVIV model ATF105 spectrofluorometer at 15, 25, or 37° C. In these experiments, bandwidths were set to 4 nm in both the excitation and emission directions, with the excitation and emission wavelengths being set at 488 nm and 510 nm, respectively. BOFP (0.1 μM) was titrated with increasing concentrations (ranging from 0 to 12 μM) of FtsZ in 120 μL of buffer containing 50 mM Tris-HCl (pH 7.6) and 50 mM KCl. After each protein addition, the samples were equilibrated for 3 minutes, whereupon the fluorescence anisotropy was measured.
(§2) [formula] In this equation, r0 is the anisotropy of the protein-free compound, r∞ is the anisotropy of the compound in the presence of an infinite concentration of FtsZ, [C]tot is the total concentration of the compound, and [P]tot is the total concentration of protein with each addition. These analyses yielded the equilibrium dissociation constant (Kd) for each binding reaction.
(§3) The binding free energy (ΔG) at temperature T was derived from the corresponding Kd value determined at T using the following relationship:
(§4) [formula] The binding enthalpy (ΔH) and entropy (ΔS) were derived from linear fits of the ln(1/Kd) vs. 1/T plots shown in FIGS. 3f and 5e using the following relationship:
(§5) A quartz ultra-micro cell (Hellma) with a 2×5 mm aperture and a 15 mm center height was used for all measurements. The pathlengths in the excitation and emissions directions were 1 and 0.2 cm, respectively. All steady-state anisotropy experiments were conducted in at least triplicate, with the reported anisotropies reflecting the average values.

[2] = biological target: Klebsiella pneumoniae FtsZ (KpFtsZ) (Klebsiella pneumoniae, UniProt A0A0H3GRR0)
Klebsiella pneumoniae FtsZ (KpFtsZ), sequence (A0A0H3GRR0 entry or part of it): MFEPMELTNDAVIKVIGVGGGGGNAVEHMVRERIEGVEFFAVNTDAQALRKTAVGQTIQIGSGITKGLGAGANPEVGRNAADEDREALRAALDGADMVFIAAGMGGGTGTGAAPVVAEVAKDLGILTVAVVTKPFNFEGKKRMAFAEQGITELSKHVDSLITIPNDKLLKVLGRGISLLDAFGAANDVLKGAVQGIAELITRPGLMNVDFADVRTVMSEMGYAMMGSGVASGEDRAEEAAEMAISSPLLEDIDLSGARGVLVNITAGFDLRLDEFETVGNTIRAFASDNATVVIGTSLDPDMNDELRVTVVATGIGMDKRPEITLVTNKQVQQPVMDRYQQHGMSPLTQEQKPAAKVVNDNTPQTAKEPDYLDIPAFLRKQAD
Protocol: as §1, §2, §3, §4, §5

[3] = biological target: Enterococcus faecalis FtsZ (EfsFtsZ) (Enterococcus faecalis, UniProt O08439)
Enterococcus faecalis FtsZ (EfsFtsZ), sequence (O08439 whole entry): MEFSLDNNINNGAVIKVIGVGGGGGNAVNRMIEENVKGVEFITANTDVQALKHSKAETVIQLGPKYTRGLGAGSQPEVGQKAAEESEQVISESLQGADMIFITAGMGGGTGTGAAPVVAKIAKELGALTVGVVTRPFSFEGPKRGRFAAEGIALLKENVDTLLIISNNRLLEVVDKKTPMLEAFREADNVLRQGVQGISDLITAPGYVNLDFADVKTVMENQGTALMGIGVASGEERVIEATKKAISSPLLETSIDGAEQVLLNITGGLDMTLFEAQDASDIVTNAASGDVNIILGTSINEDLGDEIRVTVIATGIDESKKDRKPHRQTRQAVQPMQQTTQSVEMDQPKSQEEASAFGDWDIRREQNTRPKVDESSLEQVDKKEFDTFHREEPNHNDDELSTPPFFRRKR
Protocol: as §1, §2, §3, §4, §5

[4] = biological target: T1, Streptococcus pneumoniae FtsZ (SpnFtsZ) (Streptococcus pneumoniae, UniProt A0A0H2ZNE0)
T1 sequence (A0A0H2ZNE0 1-419): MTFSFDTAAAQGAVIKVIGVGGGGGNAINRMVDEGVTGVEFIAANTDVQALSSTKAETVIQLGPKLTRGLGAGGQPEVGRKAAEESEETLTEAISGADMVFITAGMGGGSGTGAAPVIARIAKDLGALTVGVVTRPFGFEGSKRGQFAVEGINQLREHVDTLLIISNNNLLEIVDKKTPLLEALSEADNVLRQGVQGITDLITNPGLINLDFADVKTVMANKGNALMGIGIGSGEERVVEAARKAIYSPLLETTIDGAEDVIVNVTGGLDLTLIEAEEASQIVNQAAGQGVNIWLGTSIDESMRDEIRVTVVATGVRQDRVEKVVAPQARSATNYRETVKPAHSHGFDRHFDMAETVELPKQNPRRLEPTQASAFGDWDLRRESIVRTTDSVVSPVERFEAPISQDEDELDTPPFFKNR
Protocol: as §1, §2, §3, §4, §5

[5] = biological target: T2, Streptococcus agalactiae FtsZ (SagFtsZ) (Streptococcus agalactiae, UniProt Q8E183)
T2 sequence (Q8E183 1-426): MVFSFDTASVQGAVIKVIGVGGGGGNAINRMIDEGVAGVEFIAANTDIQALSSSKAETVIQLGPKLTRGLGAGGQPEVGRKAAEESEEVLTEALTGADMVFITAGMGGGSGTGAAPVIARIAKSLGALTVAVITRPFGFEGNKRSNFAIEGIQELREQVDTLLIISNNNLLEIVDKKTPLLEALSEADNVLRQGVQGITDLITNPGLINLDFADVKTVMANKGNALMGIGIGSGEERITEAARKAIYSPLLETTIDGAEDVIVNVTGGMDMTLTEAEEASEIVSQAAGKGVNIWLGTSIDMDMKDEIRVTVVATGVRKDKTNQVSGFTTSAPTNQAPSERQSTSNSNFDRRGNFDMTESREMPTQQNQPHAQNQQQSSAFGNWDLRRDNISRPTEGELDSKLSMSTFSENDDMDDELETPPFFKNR
Protocol: as §1, §2, §3, §4, §5

[6] = linear fit of ln(1/Kd) vs. 1/T, Eq. 3

Compound: CC1=CC(C)=[N+]2C1=Cc1ccc(CCC(=O)OCC(Oc3ccc(F)c(C(N)=O)c3F)c3nc(-c4ccc(C(F)(F)F)cc4)c(Br)o3)n1[B-]2(F)F (stereo not shown) [BOFP, 2-(5-bromo-4-(4-(trifluoromethyl)phenyl)-oxazol-2-yl)-2-(3-carbamoyl-2,4-difluorophenoxy)ethyl 3-(5,5-difluoro-7,9-dimethyl-5H-5λ^4,6λ^4-dipyrrolo[1,2-c:2′,1′-f][1,3,2]diazaborinin-3-yl)propanoate]
- ΔH contribution to the observed ΔG of binding [1]: > 50%
- Kd ([1]; 15° C., read-out: Kd −15° C.): 220 ± 30 nM
- Kd ([1]; 25° C., read-out: Kd −25° C.): 280 ± 20 nM
- Kd ([1]; 37° C., read-out: Kd −37° C.): 440 ± 40 nM
- ΔG ([1]; T = 310K (37° C.), Eq. 2): -9.0 ± 0.1 kcal/mol
- ΔH [1, 6]: -5.6 ± 0.8 kcal/mol
- ΔS [1, 6]: +11.2 ± 2.7 cal/mol · K
- ΔH contribution to the observed ΔG of binding [2]: > 50%
- Kd ([2]; 15° C., read-out: Kd −15° C.): 420 ± 50 nM
- Kd ([2]; 25° C., read-out: Kd −25° C.): 580 ± 40 nM
- Kd ([2]; 37° C., read-out: Kd −37° C.): 820 ± 40 nM
- ΔG ([2]; T = 310K (37° C.), Eq. 2): -8.6 ± 0.1 kcal/mol
- ΔH [2, 6]: -5.4 ± 0.1 kcal/mol
- ΔS [2, 6]: +10.5 ± 0.1 cal/mol · K
- enthalpic contribution (ΔH) to the observed ΔG of binding [3]: 100%
- Kd ([3]; 15° C., read-out: Kd −15° C.): 1720 ± 60 nM
- Kd ([3]; 25° C., read-out: Kd −25° C.): 3050 ± 250 nM
- Kd ([3]; 37° C., read-out: Kd −37° C.): 4620 ± 120 nM
- ΔG ([3]; T = 310K (37° C.), Eq. 2): -7.6 ± 0.1 kcal/mol
- ΔH [3, 6]: -7.9 ± 1.0 kcal/mol
- ΔS [3, 6]: −1.2 ± 3.3 cal/mol · K
- ΔS contribution to the observed ΔG of binding [4]: > 50%
- Kd ([4]; 15° C., read-out: Kd −15° C.): 3020 ± 300 nM
- Kd ([4]; 25° C., read-out: Kd −25° C.): 3490 ± 250 nM
- Kd ([4]; 37° C., read-out: Kd −37° C.): 3810 ± 690 nM
- ΔG ([4]; T = 310K (37° C.), Eq. 2): -7.7 ± 0.1 kcal/mol
- ΔH [4, 6]: -1.9 ± 0.3 kcal/mol
- ΔS [4, 6]: +18.7 ± 1.2 cal/mol · K
- ΔH contribution to the observed ΔG of binding [5]: > 50%
- Kd ([5]; 15° C., read-out: Kd −15° C.): 620 ± 50 nM
- Kd ([5]; 25° C., read-out: Kd −25° C.): 1020 ± 90 nM
- Kd ([5]; 37° C., read-out: Kd −37° C.): 1310 ± 40 nM
- ΔH [5, 6]: -6.6 ± 0.6 kcal/mol
- ΔS [5, 6]: +5.4 ± 2.0 cal/mol · K
